From the supplement of paper PMC10307832

Columns and labels:
Assay in all cases: relative viability (nuclei count vs DMSO), 5 days (fraction); higher = more cells survive
Axitinib + OSI-027 = compound: CNC(=O)c1ccccc1Sc1ccc2c(/C=C/c3ccccn3)n[nH]c2c1 [Axitinib] + COc1cccc2cc(-c3nc([C@H]4CC[C@H](C(=O)O)CC4)n4ncnc(N)c34)[nH]c12 [OSI-027] (partner 0.5 µM)
Summary of the method: (§1)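 Five library-drug doses in √10 steps were combined with a fixed anchor-drug dose, or a single drug was given alone, by pin tool to lung cancer cell lines in 1536-well plates the day after seeding. Nuclei were stained and counted after 5 days. Relative viability is the nuclei count in treated wells over that in vehicle wells, taken as the median of duplicate plates.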

Bemcentinib + Vorinostat = compound: Nc1nc(Nc2ccc3c(c2)CC[C@@H](N2CCCC2)CC3)nn1-c1cc2c(nn1)-c1ccccc1CCC2 [Bemcentinib] + O=C(CCCCCCC(=O)Nc1ccccc1)NO [Vorinostat] (partner 1 µM)
Summary of the method: as §1

[1] = compound: CC1=CC=C(C=C1)C(=O)CN2C3=C(CCCC3)SC2=N [Pifithrin_alpha] + Cc1nc(Nc2ncc(C(=O)Nc3c(C)cccc3Cl)s2)cc(N2CCN(CCO)CC2)n1 [Dasatinib] (partner 0.075 µM)
Summary of the method: as §1

[2] = compound: CC1=CC=C(C=C1)C(=O)CN2C3=C(CCCC3)SC2=N [Pifithrin_alpha] + CCNC(=O)c1noc(-c2cc(C(C)C)c(O)cc2O)c1-c1ccc(CN2CCOCC2)cc1 [Luminespib] (partner 0.01 µM)
Summary of the method: as §1

Row | Cell Line | relative viability (Axitinib + OSI-027; first compound 0.005 µM) | relative viability (Axitinib + OSI-027; first compound 0.01581 µM) | relative viability (Axitinib + OSI-027; first compound 0.05 µM) | relative viability (Axitinib + OSI-027; first compound 0.1581 µM) | relative viability (Axitinib + OSI-027; first compound 0.5 µM) | relative viability (Bemcentinib + Vorinostat; first compound 0.04 µM) | relative viability (Bemcentinib + Vorinostat; first compound 0.1265 µM) | relative viability (Bemcentinib + Vorinostat; first compound 0.4 µM) | relative viability (Bemcentinib + Vorinostat; first compound 1.265 µM) | relative viability (Bemcentinib + Vorinostat; first compound 4 µM) | relative viability ([1]; first compound 1 µM) | relative viability ([1]; first compound 3.162 µM) | relative viability ([1]; first compound 10 µM) | relative viability ([1]; first compound 31.62 µM) | relative viability ([1]; first compound 100 µM) | relative viability ([2]; first compound 1 µM) | relative viability ([2]; first compound 3.162 µM) | relative viability ([2]; first compound 10 µM) | relative viability ([2]; first compound 31.62 µM) | relative viability ([2]; first compound 100 µM)
1 | 201T | 0.735 | 0.675 | 0.502 | 0.706 | 0.679 | 0.962 | 0.981 | 1.04 | 0.938 | 1.06 | 0.47 | 0.337 | 0.431 | 0.392 | 0.399 | 1.23 | 0.805 | 0.917 | 0.8 | 0.766
2 | A-427 | 0.422 | 0.329 | 0.442 | 0.434 | 0.486 | 0.841 | 0.896 | 0.867 | 0.836 | 0.82 | 0.824 | 0.635 | 0.599 | 0.513 | 0.702 | 1.07 | 0.917 | 1 | 0.678 | 0.828
3 | ABC-1 | 0.597 | 0.436 | 0.482 | 0.456 | 0.448 | 1.01 | 1.1 | 1.11 | 0.856 | 0.892 | 0.413 | 0.439 | 0.435 | 0.398 | 0.453 |  | 0.642 | 0.766 | 0.508 | 0.262
4 | BEN | 0.3 | 0.287 | 0.3 | 0.286 | 0.342 | 0.567 | 0.627 | 0.562 | 0.56 | 0.6 | 0.217 | 0.36 | 0.373 | 0.343 | 0.299 | 0.191 | 0.285 | 0.401 | 0.493 | 0.398
5 | CAL-12T | 0.847 | 0.684 | 0.728 | 0.597 | 0.634 | 0.907 | 1 | 0.824 | 0.762 | 0.831 | 0.327 | 0.249 | 0.258 |  | 0.196 | 0.277 | 0.327 | 0.521 |  | 0.186
6 | COR-L23 | 0.88 | 0.775 | 0.804 | 0.75 | 1.19 | 0.468 | 0.47 | 0.522 | 0.477 | 0.521 | 0.567 | 0.458 | 0.386 |  | 0.38 | 0.703 | 0.865 | 0.562 |  | 0.484
7 | COR-L 105 | 0.762 | 0.509 | 0.681 | 0.722 | 0.725 | 0.751 | 0.985 | 0.918 | 0.933 | 0.826 | 0.315 | 0.292 | 0.323 | 0.243 | 0.323 | 0.675 | 0.763 | 0.547 | 0.62 | 0.685
8 | ChaGo-K-1 | 0.547 | 0.505 | 0.67 | 0.554 | 0.591 | 0.686 | 0.832 | 0.823 | 0.749 | 0.755 | 0.641 | 0.594 | 0.614 | 0.509 | 0.497 | 0.563 | 0.528 | 0.477 | 0.38 | 0.581
9 | EKVX | 0.708 | 0.708 | 0.746 | 0.737 | 0.69 | 0.509 | 0.815 | 0.726 | 0.701 | 0.79 |  | 0.461 | 0.352 | 0.404 | 0.384 | 0.885 |  | 0.826 | 0.726 | 0.769
10 | EMC-BAC-2 | 0.409 | 0.374 | 0.359 | 0.426 | 0.409 | 0.38 | 0.413 | 0.537 | 0.358 | 0.4 | 0.311 | 0.319 | 0.298 |  | 0.311 | 1.17 | 1.12 | 0.969 |  | 1.08
11 | EPLC-272H | 0.3 | 0.286 | 0.248 | 0.293 | 0.283 | 0.441 | 0.458 | 0.459 | 0.405 | 0.58 | 0.236 | 0.344 | 0.324 | 0.279 | 0.379 | 0.279 | 0.264 | 0.564 | 0.226 | 0.16
12 | H3255 | 0.651 | 0.512 | 0.612 | 0.599 | 0.544 |  | 0.755 | 0.772 | 0.784 | 0.772 | 0.29 | 0.344 | 0.308 | 0.32 | 0.274 | 0.744 | 0.843 | 0.965 | 0.642 | 0.964
13 | HARA | 0.445 | 0.414 | 0.666 | 0.49 | 0.802 | 0.402 | 0.658 | 0.573 | 0.645 | 0.543 |  | 0.256 | 0.257 |  | 0.268 |  | 0.899 | 0.792 |  | 0.481
14 | HCC-15 | 0.725 | 0.679 | 0.689 | 0.65 | 0.623 | 0.853 | 0.953 | 0.913 | 0.927 | 0.879 | 0.634 | 0.61 | 0.485 | 0.275 | 0.264 | 0.175 | 0.284 | 0.315 | 0.209 | 0.322
15 | HCC-44 | 0.451 | 0.439 | 0.404 | 0.605 | 0.614 | 1.15 | 1.2 | 1.05 | 1.13 | 1.08 |  |  |  |  |  | 1.06 | 1.21 | 0.671 | 0.543 | 0.622
16 | HCC-78 | 0.365 | 0.335 | 0.358 | 0.362 | 0.356 | 0.456 | 0.449 | 0.394 | 0.514 | 0.39 | 0.259 | 0.354 | 0.336 | 0.417 | 0.455 |  |  |  |  | 
17 | HCC-366 | 0.979 | 0.895 | 1.09 | 1.02 | 0.939 | 0.32 | 0.43 | 0.441 | 0.303 | 0.433 | 0.501 | 0.506 | 0.426 |  | 0.537 |  |  |  |  | 
